System: CT26 mouse colon carcinoma model
Assay: In vivo co-localisation of Cy7 labelled nCVTs, IVIS imaging
Description: The nCVTs labelled with cyanine 7 NHS Monoester dye (Cy7) of Example 7 were compared with similarly labeled liposomes of the same lipid constitution (Liposomes produced for loading and in vitro testing were prepared with 1.95 mg of DPPC and 0.05 mg of Cholesterol. Liposomes produced for in vivo experiments were PEGylated, and prepared with 2.61 mg of DPPC, 1.61 mg of DSPE-PEG2000 and 0.78 mg of cholesterol.) The samples were then injected through the tail vein of a CT26 mouse colon carcinoma model, with tumour formation subcutaneously on the back of the mouse.
Three groups of mice were injected with Cy7 labelled nCVTs, Cy7 labelled liposomes and free dye. After 24 hours, the mice were imaged using the In Vivo Imaging Systems (IVIS) spectrum.

cyanine 7 NHS Monoester dye [free dye]
Relative fluorescence intensity of excised liver and kidney (24 hours, liposomes are PEGylated): reduced fluorescence intensity
Accumulation of fluorescence at the tumour site (IVIS, whole mice) (tail vein injection, after 24 hours, liposomes are PEGylated): does not accumulate in the tumours
Clearance (tail vein injection, mouse): rapidly cleared
Elimination from the mouse (within 24 hours): largely eliminated
